We go through two compounds from patent publication US20120041172A1, “METHOD FOR THE MANUFACTURE OF DEGARELIX” (Polypeptide Laboratories A/S, priority 2009, published 2012).

Non-standard residues stand in square brackets, D forms with d. Residues, ends and D or L forms follow the SMILES beside them. *: point of attachment. dPhe(4-NHCONH2) = NC(=O)Nc1ccc(C[C@@H](N)C(=O)O)cc1; Dihydroorotyl(S) = O=C1C[C@@H](C(=O)*)NC(=O)N1; dPhe(4-Cl) = N[C@H](Cc1ccc(Cl)cc1)C(=O)O; Phe(4-NH2) = Nc1ccc(C[C@H](N)C(=O)O)cc1; d2Nal = N[C@H](Cc1ccc2ccccc2c1)C(=O)O; Lys(iPr) = CC(C)NCCCC[C@H](N)C(=O)O; d3Pal = N[C@H](Cc1cccnc1)C(=O)O

Series [1] can be described thus: Stability of degarelix in DBU/DMF and piperidine/DMF (Fmoc-removal conditions), HPLC. Type of series: physicochemical. The conditions noted are these: 20 h. Here is the method: Stability of degarelix in DBU/DMF and piperidine/DMF. The stability of degarelix was tested under conditions corresponding to those used for removal of the Fmoc-group during SPPS. The hydroorotic group in the side chain of 4Aph(Hor), amino acid residue no. 5 in the sequence of degarelix, is known to be sensitive to base and rearrange to a hydantoinacetyl group. All SPPS procedures known to the inventors had been based on Boc-chemistry.
Samples of degarelix were dissolved in 20% piperidine/DMF; 2% DBU in DMF, and 2% DBU+5% water in DMF; respectively. The samples were analysed by HPLC after 20 h and the amount of the hydantoin analogue determined.
If 5% water was present, too (simulating wet DMF), the amount was increased to 7%.

A short description of series [2]: Instability of the hydroorotic moiety under basic conditions (DCHA in wet 2-BuOH). The conditions noted are these: 67 mM in wet 2-BuOH with 167 mM (2.5 eq) DCHA, 31° C, after 25 h. Type of series: physicochemical. As to the method:
The following experiment provided further proof of the instability of the hydrooroic moiety under basic conditions. Z-Ser(tBu)-4Aph(Hor)-D-4Aph(tBu-Cbm)-Leu-OH.DCHA (67 mM) was dissolved in wet 2-BuOH with 167 mM (2.5 eq) DCHA at 31° C. After 25 h, 1.3% of the hydantoin analogue and 0.3% of the hydrolysed intermediate had been formed.

Take `CC(=O)N[C@H](Cc1ccc2ccccc2c1)C(=O)N[C@H](Cc1ccc(Cl)cc1)C(=O)N[C@H](Cc1cccnc1)C(=O)N[C@@H](CO)C(=O)N[C@@H](Cc1ccc(NC(=O)[C@@H]2CC(=O)NC(=O)N2)cc1)C(=O)N[C@H](Cc1ccc(NC(N)=O)cc1)C(=O)N[C@@H](CC(C)C)C(=O)N[C@@H](CCCCNC(C)C)C(=O)N1CCC[C@H]1C(=O)N[C@H](C)C(N)=O` [degarelix, Ac-D-2Nal-D-Phe(4Cl)-D-3 Pal-Ser-4Aph(Hor)-D-4Aph(Cbm)-Leu-ILys-Pro-D-Ala-NH2] (Ac-[d2Nal][dPhe(4-Cl)][d3Pal]S[Phe(4-NH2)](Dihydroorotyl(S))[dPhe(4-NHCONH2)]L[Lys(iPr)]P[dA]-NH2): the results for the “amount of the hydantoin analogue formed” value in series [1] (2% DBU + 5% water in DMF (simulating wet DMF)) and in series [1] (2% DBU in DMF) were 7% and 1.8%, respectively. Further, the “formation of the hydantoin analogue” value in series [1] (20% piperidine in DMF) is recorded as “did not result in any formation of the hydantoin analogue”.

On to “Z-Ser(tBu)-4Aph(Hor)-D-4Aph(tBu-Cbm)-Leu-OH.DCHA”, for which, in series [2], the hydantoin analogue formed is recorded as 1.3% and the hydrolysed intermediate formed is 0.3%.
